Measured values as given in paper PMC8399014, “Design of Multifaceted Antioxidants: Shifting towards Anti-Inflammatory and Antihyperlipidemic Activity” (Molecules, 2021).
Like-named read-outs stand apart in the source and are kept apart here. Marks after values point to notes of the source that are not given here.

Legend:
[1] = tested on: carrageenan-induced mouse paw edema; conditions: cited from earlier work
[2] = target: T1, soybean lipoxygenase (LOX-3) (Glycine max, UniProt P09186); experiment: Soybean lipoxygenase (LOX-3) inhibition; assay type: biochemical; conditions: for LOX-3 inhibitory activity (in words): parent antioxidants
T1 sequence (P09186 1-857): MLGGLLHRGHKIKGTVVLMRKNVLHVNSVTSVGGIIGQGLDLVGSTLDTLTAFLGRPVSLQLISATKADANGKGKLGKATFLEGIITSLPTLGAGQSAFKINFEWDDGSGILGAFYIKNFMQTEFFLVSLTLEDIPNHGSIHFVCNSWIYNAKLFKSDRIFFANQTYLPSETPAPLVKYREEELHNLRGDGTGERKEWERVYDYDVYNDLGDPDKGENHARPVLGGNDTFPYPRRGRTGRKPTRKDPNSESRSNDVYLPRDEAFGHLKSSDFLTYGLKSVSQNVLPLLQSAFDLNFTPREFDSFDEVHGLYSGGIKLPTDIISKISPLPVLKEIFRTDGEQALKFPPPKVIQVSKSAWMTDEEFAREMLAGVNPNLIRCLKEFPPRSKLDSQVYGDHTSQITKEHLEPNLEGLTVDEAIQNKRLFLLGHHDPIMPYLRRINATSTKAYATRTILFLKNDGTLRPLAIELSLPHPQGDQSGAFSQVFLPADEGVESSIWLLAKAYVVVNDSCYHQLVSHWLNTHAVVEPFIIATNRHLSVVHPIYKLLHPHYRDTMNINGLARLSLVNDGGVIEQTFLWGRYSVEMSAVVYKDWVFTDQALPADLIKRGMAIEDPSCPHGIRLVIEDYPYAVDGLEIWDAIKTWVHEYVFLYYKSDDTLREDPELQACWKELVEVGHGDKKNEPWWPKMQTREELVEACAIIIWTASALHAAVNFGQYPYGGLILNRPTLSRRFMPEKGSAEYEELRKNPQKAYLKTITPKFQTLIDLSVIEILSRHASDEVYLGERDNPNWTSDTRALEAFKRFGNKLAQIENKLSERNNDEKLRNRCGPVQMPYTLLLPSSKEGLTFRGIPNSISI
Description: The anti-inflammatory effect of the synthesized compounds was initially evaluated in vitro, via their ability to inhibit soybean lipoxygenase (LOX-3).
Lipoxygenase activity was determined using soybean lipoxygenase (250 U/mL) and sodium linoleate (100 μM) as substrate, in Tris–HCl buffer pH 9.0. The test compounds dissolved in methanol were added and the reaction was monitored for 5 min at 28 °C, recording absorbance at 234 nm.

[3] = tested on: rat/mouse microsomal lipid peroxidation; experiment: Inhibition of microsomal lipid peroxidation; assay type: biochemical, C57BL/6 mice; conditions: after 45 min of incubation; read-out: IC50 against microsomal lipid peroxidation
Description: The antioxidant effect of the new compounds, as well as their parent compounds was also evaluated by the protection offered against rat/mouse microsomal lipid peroxidation.
The incubation mixture contained heat-inactivated (90 °C for 90 s) liver microsomal fraction from untreated C57BL/6 mice (corresponding to 2.5 mg of hepatic protein per milliliter or 4 mM fatty acid residues), ascorbic acid (0.2 mM) in Tris–HCl/KCl buffer (50 mM/ 150 mM, pH 7.4), and the studied compounds dissolved in dimethyl sulfoxide (in different concentrations). The reaction was initiated by the addition of a freshly prepared FeSO4 solution (10 μM), and the mixture was incubated at 37 °C for 45 min. Aliquots were taken at various time intervals and lipid peroxidation was assessed by the spectrophotometric (535 against 600 nm) determination of the produced 2-thiobarbituric acid reactive material.

[4] = Radical scavenging of DPPH; conditions: DPPH 200 μM, after incubation for 30 min
Description: The antioxidant activity of compounds 1–17 was evaluated via their ability to scavenge the free radical DPPH.
Compounds dissolved in absolute methanol at concentrations of 25–400 μM were added to an equal volume of a methanolic solution of DPPH (final concentration 200 μM) at room temperature (22 ± 2 °C). Absorbance (517 nm) was recorded at different time intervals for 1 h and results were expressed as IC50 (μM) for DPPH after incubation for 30 min [3].

[5] = tested on: carrageenan-induced mouse paw edema; experiment: Carrageenan-induced mouse paw edema; assay type: in vivo; conditions: for inhibition in vivo at 300 µmol/kg: Mus musculus, ip, 0.30 mmol/kg i.p., 3.5 h after carrageenan, mean of 6 animals, read-out: % Edema Reduction
Description: In vivo anti-inflammatory activity of the synthesized compounds was evaluated as mouse paw edema reduction. Paw edema was induced by subcutaneous injection of a 2% carrageenan suspension in the right paw of mice, the left serving as the control. The activity of the tested compounds (at 0.30 mmol/kg of body weight, i.p.), expressed as % reduction in paw edema 3.5 h after carrageenan injection, is shown in Table 2. […] Moreover, compounds 9 and 10 (antioxidant derivatives of mefenamic acid) caused a 1.5–2-fold improvement in edema reduction compared to that of the parent mefenamic acid (i).
For the in vivo anti-inflammatory activity, Wistar male rats or C57BL/6 mice were injected with 0.025 mL carrageenan (2% w/v solution in saline) i.d. into the right hind paw, with the left paw serving as the control. The test compounds (300 μmol/kg) were given, i.p., after the carrageenan injection, and 3.5 h later, the produced edema was estimated as the paw weight increase. Results are expressed as percentage of the reduction in paw edema and are the means for six animals (per compound).

[6] = tested on: rat/mouse microsomal lipid peroxidation; set-up: method as in doi:10.1002/(SICI)1098-2299(199905)47:1<9::AID-DDR2>3.0.CO; conditions: after 45 min of incubation; read-out: IC50 against microsomal lipid peroxidation; cited from earlier work
[7] = tested on: experimentally induced hyperlipidemic mouse model; experiment: Tyloxapol (Triton WR 1339)-induced hyperlipidemia; assay type: in vivo, mice; conditions: 84 μmol/kg i.p.; 24 h after tyloxapol
Description: Acute hyperlipidemia was achieved, i.p., by the administration of tyloxapol (Triton WR 1339). The antihyperlipidemic effect of the tested compounds was evaluated as the decrease in total cholesterol (TC) and triglyceride (TG) levels in plasma 24 h after tyloxapol administration. The results are shown in Figure 4A,B. Compounds 9 and 10 reduced TC levels in plasma by 73% and 50%, respectively, and TG levels by 76% and 41%, respectively.
An aqueous solution of Triton WR 1339 was given, i.p., to mice (400 mg/kg of body weight) and one hour later the test compounds (84 μmol/kg of body weight), dissolved in saline or saline only were administered, i.p. After 24 h, blood was taken from the aorta/heart and used for the determination of plasma total cholesterol (TC) and triglyceride (TG) levels, using commercially available kits. Levels of plasma lipids were determined in duplicate while the values presented were the mean from eight animals (per compound).

[8] = after 5 min of incubation, sodium linoleate 100 μM, pH 9.0, read-out: IC50 Value on LOX-3

Row | IC50 [3] | LOX-3 inhibitory activity (in words) [2] | IC50 [4] | Compound | inhibition in vivo at 300 µmol/kg [5] | also measured
1 | 10 µM | little or no inhibitory activity | 160 µM | CC(C)(C)c1cc(CO)cc(C(C)(C)C)c1O [BHBA, 3,5-di-tert-butyl-4-hydroxybenzyl alcohol, reference compound] | 71% | –
2 | 5 µM | – | – | Cc1cccc(Nc2ccccc2C(=O)OCc2cc(C(C)(C)C)c(O)c(C(C)(C)C)c2)c1C [Compound 9, 3,5-di-tert-butyl-4-hydroxybenzyl 2-((2,3-dimethylphenyl)amino)benzoate] | 63% | IC50 [2, 8]: 108 µM; reduction of total cholesterol (TC) levels in plasma [7]: 73%; reduction of triglyceride (TG) levels in plasma [7]: 76%; improvement in edema reduction ([5]; compared to parent mefenamic acid (i)): 1.5–2 fold

The remaining lines, values behind:

Row | Compound | IC50 [3] | LOX-3 inhibitory activity (in words) [2] | IC50 [4] | inhibition in vivo at 300 µmol/kg [5] | also measured
3 | COc1ccc2cc([C@H](C)C(=O)O)ccc2c1 [c, Naproxen, reference compound] | – | – | – | – | % Edema Reduction ([1]; 0.30 mmol/kg i.p.): 51** [11] %; IC50 [2]: 25 µM
4 | COc1ccc2cc(C(C)C(=O)OCc3cc(C(C)(C)C)c(O)c(C(C)(C)C)c3)ccc2c1 (stereo not drawn) [Compound 3, 3,5-di-tert-butyl-4-hydroxybenzyl 2-(6-methoxynaphthalen-2-yl)propanoate] | – | – | – | – | % Edema Reduction ([1]; 0.15 mmol/kg i.p.): 78**^a [11] %; IC50 [2, 8]: 41 µM; melting point: 85 to 86 °C
5 | Cc1c(C)c2c(c(C)c1O)CCC(C)(C(=O)O)O2 (stereo not drawn) [Trolox, 6-hydroxy-2,5,7,8-tetramethylchromane-2-carboxylic acid, reference compound] | 25 µM | little or no inhibitory activity | 33 µM | 46% | –
6 | CC(C)(C)c1cc(C(=O)O)cc(C(C)(C)C)c1O [BHB, 3,5-di-tert-butyl-4-hydroxybenzoic acid, reference compound] | 257 µM | little or no inhibitory activity | 31 µM | 53% | –
7 | Cc1cccc(Nc2ccccc2C(=O)O)c1C [i, Mefenamic acid, reference compound] | – | – | – | 35% | IC50 [6]: 130 µM
8 | Cc1c(Cl)cccc1Nc1ccccc1C(=O)O [e, Tolfenamic acid] | – | – | – | – | % Edema Reduction ([1]; 0.30 mmol/kg i.p.): 60*** [5] %; IC50 [6]: 250 µM
